Assay results reported in US7312330B2, “Bicycloheteroarylamine compounds as ion channel ligands and uses thereof” (Renovis, Inc., priority 2003, dated 2007).

Legend:
[1] = molecular target: T1, HsVR1 (Homo sapiens, UniProt Q8NER1); assay: Two-electrode voltage clamp recording of capsaicin induced VR1 current in Xenopus oocytes; type: cell-based; details: 250 nM capsaicin induced current; Xenopus oocytes injected with HsVR1 RNA; read-out: EPHYS IC50
T1 construct: expressed in transfected cells; host or cells: Xenopus oocytes injected with HsVR1 RNA
Experimental: Xenopus ovaries obtained from NASCO were isolated by enzymatic dissociation using collagenase (Worthington, 2 mg/ml). Oocytes were then individually injected with HsVR1 RNA (0.5 μg/μl). Injected oocytes are stored in standard oocyte incubation solution, ND96, containing 96 mM NaCl, 2 mM KCl, 1 mM MgCl2, 0.3 mM CaCl2 and 50 µg/ml Gentamicin at 16° C. Capsaicin induced VR1 current is observed in oocytes 4-5 days after injection. Eight oocytes are placed in the recording chambers. Each oocyte is impaled by 2 glass electrodes having resistances of 0.5 to 1 MOhm when filled with a 3 M KCl solution. Electrode advancement and oocyte impalement are under software control (OpusXpress 1.1, Axon Instruments). VR1 expression in the oocytes is verified using 250 nM capsaicin. Test solution delivery to the oocytes during the experiment is also under software control. The solutions are prepared in 96 well plates and robotically pipetted into the oocyte recording chambers by an 8 channel pipetter. Oocytes are exposed to several 250 μl applications of 250 nM capsaicin until a stable current amplitude is obtained with each application. A set of 96 well plates containing the test solutions is prepared so that the sequence of solution application to the oocyte is as follows: 250 μls of 250 nM capsaicin is followed by a several minute wash with standard oocyte saline. 1 ml of the test compound is then added at a particular test concentration, followed immediately by 250 μl of the compound at the same concentration plus 250 nM capsaicin. The capsaicin induced VR1 current is recorded in the presence and absence of test compound for each concentration. The standard test concentrations range from 0.3 to 2000 nM. Quantitative measurement of VR1 current block was carried out by calculating the area under the curve described by the inward current. The resulting numbers for capsaicin induced currents in the presence of increasing compound concentration are normalized to the maximum current obtained. These points are then plotted on a logarithmic scale and fitted by a Hill function. The IC50 values for each compound tested were then calculated from the resulting Hill fit. All compounds that inhibited capsaicin induced current greater than 50% were considered positives.

[2] = molecular target: hVR1 (Homo sapiens, UniProt Q8NER1); assay: Calcium imaging assay (Fura2) of VR1 antagonists, proton stimulation; type: cell-based; details: HEK 293 cells expressing hVR1; for % Inhibition @ 1 μM: calcium ion influx induced by proton stimulation (pH 5.7); for IC50: calcium ion influx induced by proton stimulation
From the text: VR1 protein is a heat-gated cation channel that exchanges about 10 calcium ions for every sodium ion resulting in neuronal membrane depolarization and elevated intracellular calcium ion levels. Therefore the functional activity of compounds at the VR1 receptor may be determined by measuring changes in intracellular calcium levels in 293 cells expressing capsaicin-insensitive VR1 receptor variants. A dual wavelength ratiometric dye, Fura2, was used as an indicator of relative levels of calcium ions in a 96 well format using a bench top scanning fluorometer with integrated fluidics and temperature control (Flex Station, Molecular Devices).
A dual wavelength ratiometric dye, Fura2, was used as an indicator of relative levels of [Ca2+] in a 96 well format using a bench top scanning fluorometer with integrated fluidics and temperature control (Flex Station, Molecular Devices).
HEK 293 cells expressing hVR1 were grown on PDL coated 96-well black-walled plates, in the presence of a DMEM medium containing 5% Penstrep, 5% Glutamax, 200 ug/mL Hygromycin, 5 μg/mL Blasticide and 10% heat inactivated FBS. Prior to assay, the cells were loaded with 5 μg/mL Fura2 in normal saline solution at 37° C. for 40 minutes. Cells were then washed with normal saline to remove the dye.
The assay consists of two stages; a pre-treatment phase followed by a treatment phase. In the pretreatment phase, 50 μl of a compound solution was added to the cells. Immediately following, 50 μl of the test compound in the presence of agonist (a saline solution plus 10 mM citric acid bufferd to pH 5.7 with HCl) was added. Fura2 was excited at […] to indicate relative calcium concentration. Changes in wavelength measurements were made throughout the course of the experiment in 4 second intervals over a period of 3 minutes. The fluorescence ratio from the excitations at […] was recorded for analysis. Responses were measured as peak fluorescence ratio after compound-agonist addition minus baseline fluorescence ratio prior to treatment and were calculated for each concentration tested using the SoftMaxPro software. Data was expressed as percentage inhibition calculated as follows: […]
A dose response curve was then determined, from which the ID50 of each compound was calculated.

T1 sequence (Q8NER1 whole entry): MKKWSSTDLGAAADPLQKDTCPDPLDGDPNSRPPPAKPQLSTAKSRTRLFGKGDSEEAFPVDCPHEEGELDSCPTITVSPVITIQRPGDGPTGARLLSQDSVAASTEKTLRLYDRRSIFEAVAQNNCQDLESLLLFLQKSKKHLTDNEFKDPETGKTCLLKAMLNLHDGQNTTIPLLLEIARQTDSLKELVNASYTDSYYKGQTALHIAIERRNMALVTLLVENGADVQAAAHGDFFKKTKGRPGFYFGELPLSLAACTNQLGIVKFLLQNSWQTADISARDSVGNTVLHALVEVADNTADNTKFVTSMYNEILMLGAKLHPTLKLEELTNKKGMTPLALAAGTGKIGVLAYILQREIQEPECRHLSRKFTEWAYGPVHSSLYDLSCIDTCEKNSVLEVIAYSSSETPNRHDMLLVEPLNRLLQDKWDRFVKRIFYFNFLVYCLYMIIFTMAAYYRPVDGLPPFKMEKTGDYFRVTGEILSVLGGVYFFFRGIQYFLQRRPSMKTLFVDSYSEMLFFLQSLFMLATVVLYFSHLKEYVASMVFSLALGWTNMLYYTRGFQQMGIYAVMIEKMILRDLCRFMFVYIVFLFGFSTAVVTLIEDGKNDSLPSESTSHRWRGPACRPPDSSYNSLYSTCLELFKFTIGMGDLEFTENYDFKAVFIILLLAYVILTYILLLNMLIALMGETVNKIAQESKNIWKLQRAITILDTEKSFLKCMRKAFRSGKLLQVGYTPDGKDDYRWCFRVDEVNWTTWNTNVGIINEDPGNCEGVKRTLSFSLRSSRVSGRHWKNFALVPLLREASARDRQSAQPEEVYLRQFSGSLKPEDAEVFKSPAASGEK
Sequence of hVR1 (Q8NER1 whole entry): as above

Structure (SMILES)	IC50 [1]	IC50 [2]	% Inhibition @ 1 μM [2]
CC(C)(C)c1ccc(Nc2ncnc3c2CCN(c2ncccc2Cl)C3)cc1.Cl [Example 3, N-(4-tert-Butylphenyl)-7-(3-chloropyridin-2-yl)-5,6,7,8-tetrahydropyrido[3,4-d]pyrimidin-4-amine hydrochloride]	< 100 nM	< 100 nM	++++ (compound exhibited 76% or greater inhibition of calcium ion influx induced by proton stimulation)
COCc1nc2c(c(Nc3ccc(C(C)(C)C)cc3)n1)CCN(c1ncccc1Cl)C2.Cl [Example 5, N-(4-tert-Butylphenyl)-7-(3-chloropyridin-2-yl)-5,6,7,8-tetrahydro-2-(methoxymethyl)pyrido[3,4-d]pyrimidin-4-amine hydrochloride]	< 100 nM	< 100 nM	++++ (compound exhibited 76% or greater inhibition of calcium ion influx induced by proton stimulation)
CC(C)(C)c1ccc(Nc2ncnc3c2CCN(c2ncccc2S(C)(=O)=O)C3)cc1 [Example 8, (4-tert-Butyl-phenyl)-[7-(3-methanesulfonyl-pyridin-2-yl)-5,6,7,8-tetrahydro-pyrido[3,4-d]pyrimidin-4-yl]-amine]	101 to 500 nM	101 to 500 nM	++++ (compound exhibited 76% or greater inhibition of calcium ion influx induced by proton stimulation)
CCS(=O)(=O)c1cccnc1N1CCc2c(ncnc2Nc2ccc(C(F)(F)F)cc2)C1 [Example 10, 7-(3-(Ethylsulfonyl)pyridin-2-yl)-N-(4-(trifluoromethyl)phenyl)-5,6,7,8-tetrahydropyrido[3,4-d]pyrimidin-4-amine]	101 to 500 nM	101 to 500 nM	+++ (compound exhibited 51-75% inhibition of calcium ion influx induced by proton stimulation)
FC(F)(F)c1ccc(Nc2ncnc3c2CCN(c2ncccc2Cl)C3)cn1 [Example 20]	101 to 500 nM	101 to 500 nM	++++ (compound exhibited 76% or greater inhibition of calcium ion influx induced by proton stimulation)
CS(=O)(=O)c1cccnc1N1CCc2c(ncnc2Nc2ccc(S(=O)(=O)C(F)(F)F)cc2)C1 [Example 23, 7-(3-Methanesulphonylpyridin-2-yl)-N-(4-(trifluoromethylsulphonyl)phenyl)-5,6,7,8-tetrahydropyrido[3,4-d]pyrimidin-4-amine]	101 to 500 nM	101 to 500 nM	++++ (compound exhibited 76% or greater inhibition of calcium ion influx induced by proton stimulation)
CSc1nc2c(c(Nc3ccc(C(C)(C)C)cc3)n1)CCN(c1ncccc1Cl)C2 [Example 28, N-(4-tert-Butylphenyl)-7-(3-chloropyridin-2-yl)-5,6,7,8-tetrahydro-2-(methylthio)pyrido[3,4-d]pyrimidin-4-amine]	< 100 nM	< 100 nM	++++ (compound exhibited 76% or greater inhibition of calcium ion influx induced by proton stimulation)
COc1nc2c(c(Nc3ccc(C(C)(C)C)cc3)n1)CCN(c1ncccc1Cl)C2 [Example 29, N-(4-tert-Butylphenyl)-7-(3-chloropyridin-2-yl)-5,6,7,8-tetrahydro-2-methoxypyrido[3,4-d]pyrimidin-4-amine]	< 100 nM	< 100 nM	++++ (compound exhibited 76% or greater inhibition of calcium ion influx induced by proton stimulation)
Clc1cccnc1N1CCc2c(ncnc2NCCc2ccccc2)C1 [Example 39, 7-(3-Chloropyridin-2-yl)-5,6,7,8-tetrahydro-N-phenethylpyrido[3,4-d]pyrimidin-4-amine]	> 1000 nM	101 to 500 nM	++++ (compound exhibited 76% or greater inhibition of calcium ion influx induced by proton stimulation)
FC(F)(F)Oc1ccc(Nc2ncnc3c2CCN(c2ncccc2Cl)C3)cc1 [Example 78, 7-(3-Chloropyridin-2-yl)-5,6,7,8-tetrahydro-N-(4-(trifluoromethoxy)-phenyl)pyrido[3,4-d]pyrimidin-4-amine]		< 100 nM	++++ (compound exhibited 76% or greater inhibition of calcium ion influx induced by proton stimulation)
FC(F)(F)Oc1ccc(Nc2ncnc3c2CCN(c2ncccc2C(F)(F)F)C3)cc1 [Example 79, 7-(3-(trifluoromethyl)pyridin-2-yl)-5,6,7,8-tetrahydro-N-(4-(trifluoromethoxy)-phenyl)pyrido[3,4-d]pyrimidin-4-amine]		< 100 nM	++++ (compound exhibited 76% or greater inhibition of calcium ion influx induced by proton stimulation)

More lines, main results first:

IC50 [1]	IC50 [2]	Structure (SMILES)	% Inhibition @ 1 μM [2]
< 100 nM	101 to 500 nM	FC(F)(F)c1ccc(Nc2ncnc3c2CCN(c2ncccc2C(F)(F)F)C3)cc1 [Example 12, (4-Trifluoromethyl-phenyl)-[7-(3-trifluoromethyl-pyridin-2-yl)-5,6,7,8-tetrahydro-pyrido[3,4-d]pyrimidin-4-yl]-amine]	++++ (compound exhibited 76% or greater inhibition of calcium ion influx induced by proton stimulation)
< 100 nM	< 100 nM	O=S(=O)(c1ccc(Nc2ncnc3c2CCN(c2ncccc2Cl)C3)cc1)C(F)(F)F [Example 22, 7-(3-Chloropyridin-2-yl)-N-(4-(trifluoromethylsulphonyl)phenyl)-5,6,7,8-tetrahydropyrido[3,4-d]pyrimidin-4-amine]	++++ (compound exhibited 76% or greater inhibition of calcium ion influx induced by proton stimulation)
> 1000 nM		FC(F)(F)c1ccc(Nc2nccc3c2CCN(c2ncccc2Cl)C3)cc1 [Example 26, 6-(3-Chloropyridin-2-yl)-N-(4-(trifluoromethyl)phenyl)-5,6,7,8-tetrahydro-2,6-naphthyridin-1-amine]	+ (compound exhibited 0-25% inhibition of calcium ion influx induced by proton stimulation)
501 to 1000 nM		FC(F)(F)c1ccc(Nc2nc(NCCN3CCOCC3)nc3c2CCN(c2ncccc2Cl)C3)cc1 [Example 33, 7-(3-Chloropyridin-2-yl)-N^4-(4-(trifluoromethyl)phenyl)-5,6,7,8-tetrahydro-N^2-(2-morpholinoethyl)pyrido[3,4-d]pyrimidine-2,4-diamine]	+ (compound exhibited 0-25% inhibition of calcium ion influx induced by proton stimulation)
501 to 1000 nM	101 to 500 nM	CN(C)c1nc2c(c(Nc3ccc(C(F)(F)F)cc3)n1)CCN(c1ncccc1Cl)C2 [Example 34, 7-(3-Chloropyridin-2-yl)-N^4-(4-(trifluoromethyl)phenyl)-5,6,7,8-tetrahydro-N^2N^2-dimethylpyrido[3,4-d]pyrimidine-2,4-diamine]	+ (compound exhibited 0-25% inhibition of calcium ion influx induced by proton stimulation)
101 to 500 nM		COCc1nc2c(c(Nc3ccc(C(F)(F)F)cc3)n1)CCN(c1ncccc1Cl)C2 [Example 35, 7-(3-Chloropyridin-2-yl)-N-(4-(trifluoromethyl)phenyl)-5,6,7,8-tetrahydro-2-(methoxymethyl)pyrido[3,4-d]pyrimidin-4-amine]	++++ (compound exhibited 76% or greater inhibition of calcium ion influx induced by proton stimulation)
